{
  "source": "paper PMC5010932",
  "about": "(Molecular cancer therapeutics, 2016)",
  "target": "NAMPT (Homo sapiens, UniProt P43490)",
  "sequence (P43490 whole entry)": "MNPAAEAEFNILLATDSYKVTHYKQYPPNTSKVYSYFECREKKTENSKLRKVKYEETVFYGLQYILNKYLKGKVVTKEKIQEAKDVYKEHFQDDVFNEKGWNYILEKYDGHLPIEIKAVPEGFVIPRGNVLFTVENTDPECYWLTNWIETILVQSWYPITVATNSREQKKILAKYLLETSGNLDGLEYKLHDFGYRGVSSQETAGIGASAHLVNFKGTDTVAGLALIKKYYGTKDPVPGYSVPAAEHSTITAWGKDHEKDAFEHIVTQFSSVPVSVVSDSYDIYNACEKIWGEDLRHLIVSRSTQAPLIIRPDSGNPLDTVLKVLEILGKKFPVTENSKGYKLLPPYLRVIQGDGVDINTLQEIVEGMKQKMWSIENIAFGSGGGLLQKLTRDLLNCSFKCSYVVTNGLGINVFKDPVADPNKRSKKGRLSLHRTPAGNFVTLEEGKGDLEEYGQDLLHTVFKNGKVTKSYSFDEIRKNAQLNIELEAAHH",
  "assay": "cell-free coupled-enzyme colorimetric assay with recombinant NAMPT",
  "format": "biochemical",
  "data": [
    {"smiles": "Nc1ccc(/C=C/C(=O)NCc2cc3cc(-c4ccc(C(=O)N5CCC(F)(F)CC5)cc4)cc(-c4ccc(F)cc4)c3o2)cn1", "note": "[KPT-9274]", "values": [
      {"measurement": "IC50", "value": "~120", "unit": "nM"}
    ]}
  ]
}
